Laboratory results published in patent EP1464336A1, “Use of tryprostatin A for the reversal of cancer drug resistance” (Humboldt-Universität zu Berlin, priority 2003, dated 2004).
Entries after “also recorded” stand apart in the source; their conditions may differ.

Tests used:
[1] = test system: control cells (EPG85-257P); test: C6-NBD-PS outward translocation assay; assay type: cell-based, human; conditions: 10 µM inhibitor; 30 minutes at 37°C (Fig. 8)
Protocol: (§1) To measure redistribution of C6-NBD-PS from the cytoplasmic to the exoplasmic leaflet, labelling of the cytoplasmic leaflet is preconditional. Previously, we have introduced a method to achieve efficient labeling of the plasma membrane inner leaflet of the gastric carcinoma cell line EPG85-257 (Pohl, A., Lage, H., Müller, P., Pomorksi, T., and Herrmann. A. (2002) Biochem. J. 365, 259-268). Briefly, cells were preincubated with or without MDR inhibitors, labelled with 5 µM C6-NBD-PS, and incubated at 20°C for 30 minutes to allow inward movement of the NBD analogue. C6-NBD-PS remaining on the cell surface was extracted twice by incubation with 2% (w/v) BSA in mPBS for 10 minutes on ice. Before starting the outward translocation assay, the medium was removed, and cells were washed with ice-cold mPBS. For t=0', ice-cold medium containing 2% (w/v) BSA and 5 mM DFP ( = diisopropyl fluoro-phosphate) in mPBS with or without inhibitor was immediately added to the cell dish for 10 minutes. To measure C6-NBD-PS outward translocation, medium prewarmed to 37°C was added to the dish, and cells were incubated at 37°C for 30 minutes (t = 30'). Removal of the BSA-containing media and a second extraction with 2% BSA in mPBS for 10 minutes terminated incubations, followed by lipid analysis.
(§2) After the incubations, the second BSA back exchange medium was pooled with the first, and cells scraped into mPBS. For analysis of outward translocation and of metabolic conversion of C6-NBD-PS, lipids from both scraped cells and media were extracted with isopropanol/chloroform/(5.5:1, v/v) to prevent substantial loss into the aqueous phase. Samples were centrifuged at 780 g for 5 minutes, the supernatant transferred into new glass tubes and dried, dissolved in chloroform/methanol (1:1) and quantified spectroscopically. For C6-NBD-PC analysis, lipids from both cells and incubation media were extracted by the method of Bligh and Dyer (Bligh, E., and Dyer, W. (1959) Can. J Biochem. Physiol. 37, 911-917) using 20 mM acetic acid in the aqueous phase. After 2-D separation [I, chloroform/methanol/25% ammonium hydroxide (65:25:4, v/v); II, chloroform/acetone/methanol/acetic acid/water (10:4:2:2:1, v/v)] on thin layer chromatography plates, fluorescent lipid spots were visualized under ultraviolet light, scraped, and quantified as described before (Pomorski, T., Müller, P., Zimmermann, B., Burger, K., Devaux, P., and Herrmann, A. (1996) J. Cell Sci. 109, 687-698).

[2] = test system: BCRP overexpressing cells (EPG85-257RNOV); test: C6-NBD-PS outward translocation assay; assay type: cell-based, human; conditions: pretreatment with 10 µM inhibitor; 30 minutes at 37°C (Fig. 8)
Protocol: as §1, §2

[3] = test system: MDR1 Pgp overexpressing subline (EPG85-257RDB); test: C6-NBD-PS outward translocation assay; assay type: cell-based, human; conditions: 10 µM inhibitor; 30 minutes at 37°C (Fig. 8)
Protocol: as §1, §2

[4] = test system: MCF-7 breast cancer-derived cell variants; test: Cytotoxicity of the MDR modulator alone (SRB proliferation assay); assay type: cell-based, human
Protocol: Modulation of chemoresistance was tested using a proliferation assay based on sulforhodamine B (SRB), a protein-binding reagent (Skehan P et al., J Natl Cancer Inst 1990;82:1107-12), as described in Lage H et al., Int J Hyperthermia 2000;16:291-303; Lage H et al., FEBS Lett 2001;503:179-84; Lage H et al., FEBS Lett 2001;494:54-9. In each experiment, 350 cells per well were seeded in the presence or absence of TPS-A in 96-well plates in complete medium and allowed to attach overnight. Mitoxantrone or daunorubicin were added in a dilution series in triplicate wells. After 5 days, when unselected wells were still subconfluent, incubation was terminated by replacing the medium with 10 % trichloroacetic acid, followed by incubation at 4 °C for 1 h. After samples were washed 5 times with water and air-dried, 50 µl 0.4 % SRB (Sigma, St. Louis, MO) in 1 % acetic acid was added and samples were incubated for 10 min at room temperature. […] After air-drying and re-solubilisation of the protein-bound dye in 10 mM Tris-HCl (pH 8.0), absorbance was quantified at 562.5 nm. […] Linear regression of data was done for the linear part of the curve, and IC50-values were calculated from multiple, at least three independent experiments for each cell line.
The cytotoxicity of the MDR modulators TPS-A and GF120918 on drug-sensitive and drug-resistant gastric and breast cancer cell lines was initially assessed.

[5] = test system: cell cycle progression at the G2/M phase; conditions: literature (Cui CB et al.; Usui T et al.); cited from earlier work
[6] = test system: drug-sensitive, and drug-resistant gastric carcinoma and breast cancer cells; test: Time course of mitoxantrone accumulation (flow cytometry); assay type: cell-based, human; conditions: 10 µM mitoxantrone and TPS-A for increasing time periods (Fig 5A, 5B)
Protocol: Cellular mitoxantrone accumulation was determined according to the procedure described in Lage H et al., FEBS Lett 2001;503:179-84. Briefly, 4 x 10^5 cells were seeded out in 6-well plates 78 hours prior to the experiment. Incubation with mitoxantrone (0, 1,5 and 10 µg/ml) was performed for 60 minutes at 37°C and 70-80 % cellular confluence. For kinetics of intracellular enrichment of mitoxantrone, cells were exposed to 10 µg/ml mitoxantrone for 0, 5, 10 and 60 min. Cells were washed with ice-cold PBS, trypsinized and resuspended in 4 °C PBS at a concentration of 4 x 10^5 cells/ml. Intracellular fluorescence of mitoxantrone was determined by flow cytometry (Becton-Dickinson, San Jose, CA). The cells were excited at 480 nm and emission was measured at 630 nm. A minimum of 10^4 cells was analyzed for each sample. All assays were performed at least in three independent experiments, each time with triplicate wells.
To analyze the time course of MDR modulating effects of TPS-A, drug-sensitive, and drug-resistant gastric carcinoma and breast cancer cells were incubated with 10 µM mitoxantrone and TPS-A for increasing time periods.

In the case of `COc1ccc2c(C[C@@H]3NC(=O)[C@@H]4CCCN4C3=O)c(CC=C(C)C)[nH]c2c1` [TPS-A, tryprostatin A], the “PS transport (C6-NBD-PS outward translocation)” value [1] is reported as “did not affect PS transport significantly”, the “amount of C6-NBD-PS in the BSA containing medium (outward translocation)” value [2] is reported as “sharp and highly significant decrease” and the “PS analogue outward translocation (MDR1 Pgp lipid transport activity)” value [3] is reported as “did not affect”. The “effect on the cell proliferation” value ([4]; 50 µM TPS-A alone in the cell culture medium) was “without any effect on the cell proliferation; also recorded: did not show any cytotoxic or growth-inhibiting effects”, the “concentration necessary to obtain a level of drug sensitivity beyond that found for 1 µM GF120918” value ([4]; MCF-7-derived breast cancer model system) was 50 µM and the “final concentration arresting cell cycle progression at the G2/M phase” value [5] was 125 µM. For the same compound, the “chemosensitizing effects over time (mitoxantrone accumulation)” value [6] was “time-dependent manner”.
